ChEMBL document CHEMBL1201862, “PubChem BioAssay data set” (2004)
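Exposure lasted 48 hours, with cells grown in 96-well plates and compounds tested at five concentrations. GI50 is the concentration that inhibits growth by half.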 Active and inactive are the calls of the source. Cut-off read from the data, not from the text of the source: active = GI50 up to about 1.1 µM and inactive = higher.

What was measured:
Assay in all cases: DTP human tumour cell line panel, 48 h
OVCAR-4 = system: OVCAR-4
HCT-116 = system: HCT-116
UO-31 = system: UO-31
SK-MEL-28 = system: SK-MEL-28
OVCAR-8 = system: OVCAR-8
HL-60 = system: HL-60
UACC-62 = system: UACC-62
HOP-92 = system: HOP-92
NCI-H226 = system: NCI-H226
HT-29 = system: HT-29
NCI-H460 = system: NCI-H460
A549 = system: A549
M14 = system: M14
EKVX = system: EKVX
Malme-3M = system: Malme-3M
KM-20L2 = system: KM-20L2
U-251 = system: U-251
DMS-273 = system: DMS-273
A498 = system: A498
SNB-19 = system: SNB-19
SK-MEL-5 = system: SK-MEL-5
OVCAR-3 = system: OVCAR-3
DLD-1 = system: DLD-1
K562 = system: K562
OVCAR-5 = system: OVCAR-5
ACHN = system: ACHN
SF-295 = system: SF-295
NCI-H23 = system: NCI-H23
786-0 = system: 786-0
M19-MEL = system: M19-MEL
SN12C = system: SN12C
SNB-75 = system: SNB-75
LOX IMVI = system: LOX IMVI
CAKI-1 = system: CAKI-1
SF-268 = system: SF-268
SK-MEL-2 = system: SK-MEL-2
DMS-114 = system: DMS-114
NCI-H522 = system: NCI-H522
TK-10 = system: TK-10
SF-539 = system: SF-539
RXF 393 = system: RXF 393
HCC 2998 = system: HCC 2998
CCRF-CEM = system: CCRF-CEM
RXF 631 = system: RXF 631
MOLT-4 = system: MOLT-4
LXFL 529 = system: LXFL 529
UACC-257 = system: UACC-257
SNB-78 = system: SNB-78
SR = system: SR
RPMI-8226 = system: RPMI-8226
HCT-15 = system: HCT-15
IGROV-1 = system: IGROV-1
SW-620 = system: SW-620
XF498 = system: XF498

Cc1ccc(NC(=O)CC2C(=O)Nc3ccccc3S2(=O)=O)cc1C (centres undefined)
GI50 (OVCAR-4): > 100 µM (inactive)
GI50 (HCT-116): > 100 µM (inactive)
GI50 (UO-31): > 100 µM (inactive)
GI50 (SK-MEL-28): > 100 µM (inactive)
GI50 (OVCAR-8): > 100 µM (inactive)
GI50 (HL-60): > 100 µM (inactive)
GI50 (UACC-62): 84.7 µM (inactive)
GI50 (HOP-92): > 100 µM (inactive)
GI50 (NCI-H226): > 100 µM (inactive)
GI50 (HT-29): > 100 µM (inactive)
GI50 (NCI-H460): > 100 µM (inactive)
GI50 (A549): > 100 µM (inactive)
GI50 (M14): > 100 µM (inactive)
GI50 (EKVX): > 100 µM (inactive)
GI50 (Malme-3M): > 100 µM (inactive)
GI50 (KM-20L2): > 100 µM (inactive)
GI50 (U-251): > 100 µM (inactive)
GI50 (DMS-273): > 100 µM (inactive)
GI50 (A498): > 100 µM (inactive)
GI50 (SNB-19): > 100 µM (inactive)
GI50 (SK-MEL-5): > 100 µM (inactive)
GI50 (OVCAR-3): > 100 µM (inactive)
GI50 (DLD-1): > 100 µM (inactive)
GI50 (K562): > 100 µM (inactive)
GI50 (OVCAR-5): > 100 µM (inactive)
GI50 (ACHN): > 100 µM (inactive)
GI50 (SF-295): > 100 µM (inactive)
GI50 (NCI-H23): > 100 µM (inactive)
GI50 (786-0): > 100 µM (inactive)
GI50 (M19-MEL): > 100 µM (inactive)
GI50 (SN12C): > 100 µM (inactive)
GI50 (SNB-75): > 100 µM (inactive)
GI50 (LOX IMVI): > 100 µM (inactive)
GI50 (CAKI-1): > 100 µM (inactive)
GI50 (SF-268): > 10 µM (inactive)
GI50 (SK-MEL-2): > 100 µM (inactive)
GI50 (DMS-114): > 100 µM (inactive)
GI50 (NCI-H522): > 100 µM (inactive)
GI50 (TK-10): > 100 µM (inactive)
GI50 (SF-539): > 100 µM (inactive)
GI50 (RXF 393): > 100 µM (inactive)
GI50 (HCC 2998): > 100 µM (inactive)
GI50 (CCRF-CEM): > 100 µM (inactive)
GI50 (RXF 631): > 100 µM (inactive)
GI50 (MOLT-4): > 100 µM (inactive)
GI50 (LXFL 529): > 100 µM (inactive)
GI50 (UACC-257): > 100 µM (inactive)
GI50 (SNB-78): > 100 µM (inactive)
GI50 (SR): > 100 µM (inactive)
GI50 (RPMI-8226): 62.8 µM (inactive)
GI50 (HCT-15): > 100 µM
GI50 (IGROV-1): > 100 µM (inactive)
GI50 (SW-620): > 100 µM (inactive)
GI50 (XF498): > 100 µM (inactive)
